Results reported in ChEMBL document CHEMBL1133264, “Development of peptidyl alpha-keto-beta-aldehydes as new inhibitors of cathepsin L--comparisons of potency and selectivity profiles with cathepsin B” (Bioorg Med Chem Lett, 2000).

Experiments:
[1] = target: Cathepsin B (Bos taurus, UniProt P07688); experiment: Ability to block cathepsin B-catalyzed hydrolysis of the fluorogenic substrate Z-Arg-Arg-NHMec
[2] = target: T1, Procathepsin L (Homo sapiens, UniProt P07711); experiment: Ability to block cathepsin L-catalyzed hydrolysis of the fluorogenic substrate Z-Phe-Arg-NHMec
[3] = target: T1, Procathepsin L; experiment: Ability to block cathepsin L-catalyzed hydrolysis of the fluorogenic substrate Z-Phe-Arg-NHMec, at 100 uM conc.; no inhibition

T1 sequence (P07711 whole entry): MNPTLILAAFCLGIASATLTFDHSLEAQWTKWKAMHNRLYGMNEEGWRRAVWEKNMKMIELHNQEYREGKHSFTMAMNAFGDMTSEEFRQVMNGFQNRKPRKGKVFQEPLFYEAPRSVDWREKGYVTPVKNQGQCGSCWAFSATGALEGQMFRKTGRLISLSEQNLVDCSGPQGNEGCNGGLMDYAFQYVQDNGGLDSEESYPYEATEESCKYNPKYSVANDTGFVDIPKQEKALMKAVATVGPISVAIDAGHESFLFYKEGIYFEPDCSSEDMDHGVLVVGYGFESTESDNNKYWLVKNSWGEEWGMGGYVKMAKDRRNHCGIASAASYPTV

| SMILES | Ki [1] [nM] | Ki [2] [nM] | Ki [3] |
| --- | --- | --- | --- |
| CCCCOc1ccc(C[C@H](NC(=O)[C@H](Cc2ccccc2)NC(=O)OCc2ccccc2)C(=O)C=O)cc1 | 214 | 0.6 |  |
| CC(=O)N[C@@H](CCCN=C(N)N)C(=O)N[C@@H](CCCN=C(N)N)C(=O)C=O | 640 |  | Not Active |
| CC(=O)N[C@@H](CC(C)C)C(=O)N[C@@H](CC(C)C)C(=O)N[C@@H](CCCN=C(N)N)C(=O)C=O | 1250 | 970 |  |
| N=C(N)NCCC[C@H](NC(=O)[C@H](Cc1ccccc1)C(=O)OCc1ccccc1)C(=O)C=O | 40 | 90 |  |
